This note sets out measurements from patent US7420056B2, “Substituted bicyclic imidazo-3-ylamine compounds” (Gruenenthal GmbH, priority 2004, dated 2008).

Counter-ions that a name gives are not always drawn.

In general, IC50 refers to the concentration at which inhibition is half-maximal.

Chain of mGluR5 receptor (I3LUI7 19-1212): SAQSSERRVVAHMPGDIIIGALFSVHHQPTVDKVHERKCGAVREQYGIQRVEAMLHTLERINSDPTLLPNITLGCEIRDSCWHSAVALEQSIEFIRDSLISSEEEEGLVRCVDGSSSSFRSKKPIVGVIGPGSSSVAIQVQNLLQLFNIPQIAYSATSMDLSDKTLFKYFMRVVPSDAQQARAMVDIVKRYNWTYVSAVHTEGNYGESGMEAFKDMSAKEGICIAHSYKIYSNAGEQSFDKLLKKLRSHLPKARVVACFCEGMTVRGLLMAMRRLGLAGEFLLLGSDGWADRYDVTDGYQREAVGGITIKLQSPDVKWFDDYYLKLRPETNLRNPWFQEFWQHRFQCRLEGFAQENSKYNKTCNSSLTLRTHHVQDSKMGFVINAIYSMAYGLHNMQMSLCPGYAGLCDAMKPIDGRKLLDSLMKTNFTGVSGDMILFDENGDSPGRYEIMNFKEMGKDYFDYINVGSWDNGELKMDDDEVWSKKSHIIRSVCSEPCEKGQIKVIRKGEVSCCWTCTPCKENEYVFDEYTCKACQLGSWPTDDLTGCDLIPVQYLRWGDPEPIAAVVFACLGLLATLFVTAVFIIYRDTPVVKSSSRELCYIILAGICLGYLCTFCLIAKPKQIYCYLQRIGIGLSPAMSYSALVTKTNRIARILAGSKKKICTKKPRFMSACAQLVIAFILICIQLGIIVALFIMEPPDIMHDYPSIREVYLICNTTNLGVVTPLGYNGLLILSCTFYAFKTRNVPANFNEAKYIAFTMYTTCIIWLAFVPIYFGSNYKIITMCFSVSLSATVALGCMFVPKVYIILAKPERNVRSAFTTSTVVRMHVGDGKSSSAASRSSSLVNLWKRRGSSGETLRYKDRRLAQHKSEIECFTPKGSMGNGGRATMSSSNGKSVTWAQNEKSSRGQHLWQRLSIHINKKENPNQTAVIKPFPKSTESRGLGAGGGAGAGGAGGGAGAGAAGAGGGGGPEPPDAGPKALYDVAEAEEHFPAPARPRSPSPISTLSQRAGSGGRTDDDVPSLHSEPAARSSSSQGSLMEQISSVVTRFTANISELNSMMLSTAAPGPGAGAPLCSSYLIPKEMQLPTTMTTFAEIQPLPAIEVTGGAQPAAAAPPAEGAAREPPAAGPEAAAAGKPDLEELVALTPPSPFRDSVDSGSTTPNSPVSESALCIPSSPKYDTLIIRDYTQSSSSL

In the first assay the target is mGluR5 receptor (Sus scrofa, UniProt I3LUI7). Description: Affinity for the mGluR5 receptor: inhibition of 3[H]-MPEP binding in pig brain homogenate. As to conditions: 10 μM compound, 5 nM 3[H]-MPEP, read-out: mGluR5 receptor inhibition of ^3[H]-MPEP binding [10 μM] in % at a concentration of the example compounds of 10 μM. The procedure:
1. Method for Determining Affinity for the mGluR5 Receptor
Pig brain homogenate is produced by homogenisation (Polytron Pt 3000, Kinematica AG, 10,000 revolutions per minute for 90 seconds) of pig brain hemispheres without medulla, cerebellum and pons in a buffer of pH 8.0 (30 mM Hepes, Sigma, order number H3375+1 tablet Complete Roche Diagnostics, order number 1836145 made up to 100 ml) in a ratio of 1:20 (brain weight/volume) and differential centrifugation at 900×g and 40,000×g. 450 μg of protein from brain homogenate is incubated in each case in 250 μl incubation batches in 96-well microtitre plates with 5 nM 3[H]-MPEP (Tocris, order number R1212) (MPEP=2-methyl-6-[…]) and the compounds to be investigated (10 μM in the test) in the buffer (as above) at room temperature for 60 minutes.
The batches are then filtered with the assistance of a Brandel Cell Harvester (Brandel, Grade Robotic 9600) on Unifilter plates with glass filter mats (Perkin Elmer, order number 6005177) and then washed 3 times with buffer (as above) using 250 μl per sample. The filter plates are then dried for 60 minutes at 55° C. Then 30 μl of Ultima Gold™ scintillating material (Packard BioScience, order number 6013159) is added per well and after 3 hours the samples are measured using the β counter (Microbeta, Perkin Elmer). Nonspecific binding is determined by the addition of 10 μM MPEP (Tocris, order number 1212).
On to `Cc1ccc2nc(-c3cccc(C#Cc4cccc(C)n4)c3)c(NC3CCCCC3)n2c1` [Example 273, N-cyclohexyl-6-methyl-2-(3-((6-methylpyridin-2-yl)ethynyl)phenyl)imidazo[1,2-a]pyridin-3-amine], for which the inhibition at 10 µM is 84%. On the same count and under the same terms, the result for `Cc1ccc2nc(-c3ccc(C#Cc4ccccn4)s3)c(NC(C)(C)CC(C)(C)C)n2c1` [Example 270, 6-methyl-2-(5-(pyridin-2-ylethynyl)thiophen-2-yl)-N-(2,4,4-trimethylpentan-2-yl)imidazo[1,2-a]pyridin-3-amine] reads 93%; that for `COc1ccc(CNc2c(-c3ccc(C#Cc4ccccc4)s3)nc3ccccn23)cc1` [Example 16, (4-methoxy-benzyl)-[2-(5-phenylethynyl-thiophen-2-yl)-imidazo[1,2-a]pyridin-3-yl]-amine], 93%. On the same count and under the same terms, the same measure for `Fc1ccc(Nc2c(-c3ccc(C#Cc4ccccc4)s3)nc3cc(CCCc4ccccc4)ccn23)c(F)c1` [Example 50, (2,4-difluoro-phenyl)-[2-(5-phenylethynyl-thiophen-2-yl)-7-(3-phenyl-propyl)-imidazo[1,2-a]pyridin-3-yl]-amine]: 90%; for `CCc1ccn2c(NC(C)(C)C)c(-c3ccc(C#Cc4ccccn4)o3)nc2c1` [Example 304, N-tert-butyl-7-ethyl-2-(5-(pyridin-2-ylethynyl)furan-2-yl)imidazo[1,2-a]pyridin-3-amine]: 94%. On the same count and under the same terms, the same measure for `Clc1ccc2nc(-c3cccc(C#Cc4ccccn4)c3)c(NC3CCCCC3)n2c1` [Example 312, 6-chloro-N-cyclohexyl-2-(3-(pyridin-2-ylethynyl)phenyl)imidazo[1,2-a]pyridin-3-amine]: 64%; for `CC(C)(C)Nc1c(-c2ccc(C#Cc3ccc(Cl)s3)s2)nc2ccccn12` [Example 338, tert-butyl-{2-[5-(5-chloro-thiophen-2-ylethynyl)-thiophen-2-yl]-imidazo[1,2-a]pyridin-3-yl}-amine hydrochloride]: 52%; for `CC(C)(C)CC(C)(C)Nc1c(-c2cccc(C#Cc3ccccn3)c2)nc2c(Cl)cc(C(F)(F)F)cn12` [Example 103, 8-chloro-2-(3-(pyridin-2-ylethynyl)phenyl)-6-(trifluoromethyl)-N-(2,4,4-trimethylpentan-2-yl)imidazo[1,2-a]pyridin-3-amine]: 66%.

For `CCc1ccn2c(NCc3ccccc3Cl)c(-c3ccc(C#Cc4ccccc4)s3)nc2c1` [Example 45, (2-chloro-benzyl)-[7-ethyl-2-(5-phenylethynyl-thiophen-2-yl)-imidazo[1,2-a]pyridin-3-yl]-amine], the inhibition at 10 µM stood at 93%. Same read-out and setting: the same measure for `COc1cccc(CCNc2c(-c3ccc(C#Cc4ccccc4)o3)nc3nc(C)cc(C)n23)c1` [Example 197, N-(3-methoxyphenethyl)-5,7-dimethyl-2-(5-(phenylethynyl)furan-2-yl)imidazo[1,2-a]pyrimidin-3-amine]: 31%; for `Cc1cc(Br)c2nc(-c3cccc(C#Cc4ccccn4)c3)c(NC3CCCC3)n2c1` [Example 211, 8-bromo-N-cyclopentyl-6-methyl-2-(3-(pyridin-2-ylethynyl)phenyl)imidazo[1,2-a]pyridin-3-amine]: 82%. As for `C(#Cc1ccc(-c2nc3ccccn3c2NC2CCCC2)cn1)c1ccccc1` [Example 281, N-cyclopentyl-2-(6-(phenylethynyl)pyridin-3-yl)imidazo[1,2-a]pyridin-3-amine], the inhibition at 10 µM is 83%. Same read-out and setting: the result for `CCCc1cccc2nc(-c3cc(C#Cc4ccccc4)cs3)c(NCCc3cccc(OC)c3)n12` [Example 233, N-(3-methoxyphenethyl)-2-(4-(phenylethynyl)thiophen-2-yl)-5-propylimidazo[1,2-a]pyridin-3-amine] reads 75%; that for `C(#Cc1ccc(-c2nc3cnccn3c2NC2CCCC2)o1)c1ccccc1` [Example 216, N-cyclopentyl-2-(5-(phenylethynyl)furan-2-yl)imidazo[1,2-a]pyrazin-3-amine], 49%. Turning to `CC(C)(C)c1ccn2c(Nc3ccccc3F)c(-c3ccc(C#Cc4ccccc4)s3)nc2c1` [Example 49, [7-tert-butyl-2-(5-phenylethynyl-thiophen-2-yl)-imidazo[1,2-a]pyridin-3-yl]-(2-fluoro-phenyl)-amine], the inhibition at 10 µM was 85%. Same read-out and setting: the result for `COc1ccc(CNc2c(-c3ccc(C#Cc4ccccc4)s3)nc3cnccn23)cc1` [Example 17, (4-methoxy-benzyl)-[2-(5-phenylethynyl-thiophen-2-yl)-imidazo[1,2-a]pyrazin-3-yl]-amine] reads 96%; that for `Cc1ccc2nc(-c3ccc(C#Cc4ccccc4)s3)c(NC(C)c3ccccc3)n2c1` (centres unmarked) [Example 27, [6-methyl-2-(5-phenylethynyl-thiophen-2-yl)-imidazo[1,2-a]pyridin-3-yl]-(1-phenyl-ethyl)-amine], 82%; that for `CCc1ccn2c(NC3CCCCC3)c(-c3ccc(C#Cc4ccccn4)s3)nc2c1` [Example 298, N-cyclohexyl-7-ethyl-2-(5-(pyridin-2-ylethynyl)thiophen-2-yl)imidazo[1,2-a]pyridin-3-amine], 95%.

As to `Clc1ccc2nc(-c3ccc(C#Cc4ccccn4)s3)c(NC3CCCC3)n2c1` [Example 310, 6-chloro-N-cyclopentyl-2-(5-(pyridin-2-ylethynyl)thiophen-2-yl)imidazo[1,2-a]pyridin-3-amine], the inhibition at 10 µM worked out at 86%. Same read-out and setting: the same measure for `CCc1ccn2c(NC3CCCC3)c(-c3ccc(C#Cc4ccccc4)nc3)nc2c1` [Example 302, N-cyclopentyl-7-ethyl-2-(6-(phenylethynyl)pyridin-3-yl)imidazo[1,2-a]pyridin-3-amine]: 55%. Same read-out and setting: the result for `CCc1ccn2c(NCc3cccc(C(F)(F)F)c3)c(-c3ccc(C#Cc4ccccc4)s3)nc2c1` [Example 53, [7-ethyl-2-(5-phenylethynyl-thiophen-2-yl)-imidazo[1,2-a]pyridin-3-yl]-(3-trifluoromethyl-benzyl)-amine] reads 80%; that for `Cc1nc(C#Cc2ccccc2)ccc1-c1nc2cnccn2c1NC1CCCCC1` [Example 244, N-cyclohexyl-2-(2-methyl-6-(phenylethynyl)pyridin-3-yl)imidazo[1,2-a]pyrazin-3-amine], 54%.

The assay is the same for the next values; noted with them: 3[H]-MPEP binding.
`COC(=O)c1cccc(C#Cc2ccc(-c3nc4cnccn4c3NC(C)(C)C)s2)c1` [Example 174, methyl-3-((5-(3-(tert-butylamino)imidazo[1,2-a]pyrazin-2-yl)thiophen-2-yl)ethynyl)benzoate] came in with a half-maximal inhibitory concentration (IC50) of 840 nM. On the same count and under the same terms, the result for `CN(c1c(-c2ccc(C#Cc3ccccn3)s2)nc2cnccn12)C(C)(C)C` [Example 143, N-tert-butyl-N-methyl-2-(5-(pyridin-2-ylethynyl)thiophen-2-yl)imidazo[1,2-a]pyrazin-3-amine] reads 3.2 nM. The same measure, in the same setting: the same measure for `CC(C)(C)Nc1c(-c2ccc(C#Cc3ncccn3)s2)nc2cnccn12` [Example 129, N-tert-butyl-2-(5-(pyrimidin-2-ylethynyl)thiophen-2-yl)imidazo[1,2-a]pyrazin-3-amine hydrochloride]: 12 nM.

In turn, `COc1cncc(C#Cc2ccc(-c3nc4cnccn4c3NC(C)(C)C)s2)c1` [Example 171, N-tert-butyl-2-(5-((5-methoxypyridin-3-yl)ethynyl)thiophen-2-yl)imidazo[1,2-a]pyrazin-3-amine hydrochloride] showed a concentration for half-maximal inhibition (IC50) of 360 nM. Still for that read-out and setting: the result for `COc1cccc(C#Cc2ccc(-c3nc4cnccn4c3NC(C)(C)C)s2)n1` [Example 168, N-tert-butyl-2-(5-((6-methoxypyridin-2-yl)ethynyl)thiophen-2-yl)imidazo[1,2-a]pyrazin-3-amine] reads 640 nM; that for `CC(C)(C)Nc1c(-c2ccc(C#Cc3ccccc3N)s2)nc2cnccn12` [Example 124, 2-(5-((2-aminophenyl)ethynyl)thiophen-2-yl)-N-tert-butylimidazo[1,2-a]pyrazin-3-amine hydrochloride], 170 nM. The compound `CC(C)(C)Nc1c(-c2nc(C#Cc3ccccc3)cs2)nc2cnccn12` [Example 138, N-tert-butyl-2-(4-(phenylethynyl)thiazol-2-yl)imidazo[1,2-a]pyrazin-3-amine] came in with a half-maximal inhibitory concentration (IC50) of 15100 nM. Same read-out and setting: the same measure for `Cn1cncc1C#Cc1ccc(-c2nc3ccccn3c2NC(C)(C)C)s1` [Example 337, tert-butyl-{2-[5-(3-methyl-3H-imidazol-4-ylethynyl)-thiophen-2-yl]-imidazo[1,2-a]pyridin-3-yl}-amine hydrochloride]: 6260 nM; for `CC(C)(C)Nc1c(-c2ccc(C#Cc3ccsc3)s2)nc2ccccn12` [Example 350, N-tert-butyl-2-(5-(thiophen-3-ylethynyl)thiophen-2-yl)imidazo[1,2-a]pyridin-3-amine hydrochloride]: 570 nM. In turn, `CC(C)(C)Nc1c(-c2ccc(C#Cc3cccc(-n4cccc4)c3)s2)nc2cnccn12` [Example 148, 2-(5-((3-(1H-pyrrol-1-yl)phenyl)ethynyl)thiophen-2-yl)-N-tert-butylimidazo[1,2-a]pyrazin-3-amine hydrochloride] showed an IC50 of 330 nM.
